According to patent publication US10648012B2, “Assay for inhibitors of equilibrative or concentrative nucleoside transporters” (ALBERT EINSTEIN COLLEGE OF MEDICINE OF YESHIVA UNIVERSITY, priority 2013, dated 2020):
Where two headings read alike, the source gives them in different places.

What was measured:
[1] = tested on: WT yeast; assay: 5-FUrd IC50 on WT yeast after storage of the 5-FUrd sample; type: cell-based; details: Saccharomyces cerevisiae, 90 h
Description: (§1) Concentration dependence of 5-FUrd cytotoxic effects on PfENT1-expressing fui1Δ S. cerevisiae and on the parental fui1Δ strain: To determine the dose-response relationship for killing by 5 FUrd, 200 μl cultures in rich media (yeast extract, peptone, 2% dextrose, YPD) were inoculated with 3×10^6 cells/ml of PfENT1-expressing fui1Δ yeast and fui1Δ yeast. The cultures were grown in 96-well microtiter plates at 30° C., without shaking, in the absence of and in the presence of increasing concentrations of 5-FUrd (range 0.1-1,000 μM). After 570 minutes, the OD600 was measured using a BioRad Benchmark Plus microplate reader to determine the extent of cell growth. The OD600 was plotted as a function of drug concentration and the IC50 for 5-FUrd was calculated (FIG. 2). […] Though yeast grow optimally with constant aeration, a similar 5-FUrd IC50 was obtained for PfENT1-expressing fui1Δ yeast whether the plate was shaken continuously at 200 rpm or unshaken for 570 minutes of growth (IC50=9 μM).
5-FUrd Stability. Stability of 5-FUrd under the assay conditions is essential. The assay will involve yeast growth in the presence of 5-FUrd for 10-16 hrs at 30° C. To test 5-FUrd stability a sample of 5-FUrd was split into two aliquots. One was stored at −20° C. and the other at 30° C. for 90 hrs. The 5-FUrd IC50 was then determined for WT yeast as described above. […]

[2] = target: T1, PfENT1 (Plasmodium falciparum, UniProt Q8IDM6); assay: Inhibition of [3H]-adenine uptake by PfENT1-expressing Xenopus oocytes; type: cell-based; details: increasing concentrations of 5-FUrd
T1 sequence (Q8IDM6 1-422): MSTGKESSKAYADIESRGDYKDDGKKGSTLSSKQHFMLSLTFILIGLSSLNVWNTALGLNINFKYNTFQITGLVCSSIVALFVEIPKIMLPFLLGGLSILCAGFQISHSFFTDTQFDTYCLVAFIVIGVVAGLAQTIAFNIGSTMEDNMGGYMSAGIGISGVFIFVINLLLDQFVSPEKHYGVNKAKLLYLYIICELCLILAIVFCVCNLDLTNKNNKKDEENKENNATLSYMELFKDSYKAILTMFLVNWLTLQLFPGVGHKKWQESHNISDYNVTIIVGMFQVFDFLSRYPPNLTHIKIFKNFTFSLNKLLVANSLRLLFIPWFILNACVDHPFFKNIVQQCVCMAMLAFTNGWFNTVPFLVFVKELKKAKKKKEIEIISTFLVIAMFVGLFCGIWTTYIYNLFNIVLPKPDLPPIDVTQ

[3] = tested on: PfENT1-expressing fui1Δ yeast; assay: 5-FUrd cytotoxicity assay, growth (OD600) of PfENT1-expressing fui1Δ yeast; type: cell-based; details: Saccharomyces cerevisiae, 9.5 h
Description: as §1

[4] = 5-FUrd stability under the assay growth conditions; type: physicochemical; details: 30° C.
Description: 5-FUrd Stability. Stability of 5-FUrd under the assay conditions is essential. The assay will involve yeast growth in the presence of 5-FUrd for 10-16 hrs at 30° C. To test 5-FUrd stability a sample of 5-FUrd was split into two aliquots. One was stored at −20° C. and the other at 30° C. for 90 hrs. The 5-FUrd IC50 was then determined for WT yeast as described above. […] Thus, 5-FUrd is stable under the assay growth conditions for at least 90 hrs. The assay should only require 10-16 hrs of growth, so 5-FUrd is stable on the timescale of the assay.

[5] = tested on: fui1Δ yeast; assay: 5-FUrd cytotoxicity assay, growth (OD600) of parental fui1Δ yeast; type: cell-based; details: Saccharomyces cerevisiae, 9.5 h, read-out: 5-FUrd IC50 for killing
Description: as §1

[6] = target: T1, PfENT1; details: cited from earlier work

Q: Which IC50 ([1]; 5-FUrd sample stored at 30° C. for 90 hrs, n=3) does the source give for `O=c1[nH]c(=O)n([C@@H]2O[C@H](CO)[C@@H](O)[C@H]2O)cc1F` [5-FUrd, 5-fluorouridine] here?
A: 60 ± 3 µM

Q: And the IC50 ([1]; 5-FUrd sample stored at −20° C. for 90 hrs)?
A: 46 ± 2 µM

Q: And the Ki [2]?
A: 1100 µM

Q: And the IC50 ([3]; read-out: 5-FUrd IC50, shaken versus unshaken comparison)?
A: 9 µM

Q: And the IC50 ([3]; read-out: 5-FUrd IC50 for killing)?
A: 12 µM

Q: What about the “time stable under the assay growth conditions” value [4] of the same molecule?
A: at least 90 hrs

Q: And the IC50 [5]?
A: 6400 µM

Q: Which “inhibition of PfENT1” value [6] does the source give for `COc1cc(C(=O)OCCCN2CCCN(CCCOC(=O)c3cc(OC)c(OC)c(OC)c3)CC2)cc(OC)c1OC` [dilazep] here?
A: do not inhibit

Q: For `OCCN(CCO)c1nc(N2CCCCC2)c2nc(N(CCO)CCO)nc(N3CCCCC3)c2n1` [dipyridamole], which “inhibition of PfENT1” value [6] is on record?
A: do not inhibit

Q: For `O=[N+]([O-])c1ccc(CSc2ncnc3c2ncn3[C@@H]2O[C@H](CO)[C@@H](O)[C@H]2O)cc1` [p-nitrobenzylthioinosine], which “inhibition of PfENT1” value [6] is on record?
A: do not inhibit
